Measurements published in patent US20160324881A1, “Neurokinin-1 Receptor Antagonists For Use In A Method Of Prevention Of Cancer” (priority 2013, published 2016).
pIC50: −log10 of the molar value. Read-outs that look alike come from different tables or passages of the source.

What was measured:
[1] = tested on: brain tumors; conditions: background report; cited from earlier work
[2] = tested on: HCT-116 cells; experiment: Xenograft tumor model, preventive application, HCT116; conditions: aprepitant 100 mg/kg p.o., fosaprepitant 60 mg/kg i.v., 1x daily from day -2
Procedure: (§1) The ability of fosaprepitant and aprepitant to prevent tumor formation in xenograft models for breast cancer, lung cancer and colon cancer was investigated.
(§2) Monolayer MDA-MB-231 cells, HCT-116 cells and A549 cells, respectively, were grown in DMEM+10% FCS. The cells were cultured in a humidified atmosphere of 90% air and 10% carbon dioxide at 37° C. Media was routinely changed every 3 days. Confluent cultures were split 1:3 to 1:3 every 3-4 days using Trypsin/EDTA and seeded at a density of approximately 3-4×10^6 cells/15 cm^2+25 mL medium.
(§3) Female BALB/c nude (CAnN.Cg-Foxn1^nu/Crl) Mice (Charles River GmbH, Sulzfeld, Germany) aged 4-5 weeks at delivery and weighing approximately 15-18 g were kept under optimum hygienic conditions, air-conditioned with 10-15 air changes per hour, and continually monitored environment with target ranges for temperature 22±3° C. and for relative humidity 30-70%, 12 hours artificial fluorescent light/12 hours dark. Maximum 4 animals were kept per individual ventilated cage (IVC) and fed with a diet consisting of M-Zucht (ssniff Spezialdiáten GmbH) and autoclaved community tab water.
(§4) After an acclimatization period of 4 days (day −2) application of fosaprepitant, aprepitant and vehicle was started: Fosaprepitant was administered intravenously (i.v.) once daily for 20 days, and aprepitant was administered per oral gavage (p.o.) once daily for 20 days. Fosaprepitant was dissolved in 0.9% NaCl and 0.9% NaCl was used analogous to fosaprepitant as control (vehicle 1). As aprepitant is not water-soluble, it was provided as a suspension of ground EMEND® tablets in OraPlus® (Paddock Laboratories, Minneapolis, USA; contains: purified water, microcrystalline cellulose, carboxymethylcellulose sodium, xanthan gum, flavouring, citric acid, sodium phosphate, simethicone, methylparaben, and potassium sorbate, pH 4.2) and OraPlus® was used analogous to aprepitant as control (vehicle 2).
(§5) In the following, animal weights were measured (balance: Mettler Toledo PB602-L). Primary tumor sizes were measured by callipering (manual calliper, OMC Fontana). Tumor sizes were calculated according to the formula W^2×L/2 (L=length and W=the perpendicular width of the tumor, L>W).
(§6) Animal behavior and welfare was observed daily and tumor growth was recorded every two days by calliper measurement over a period of 30 days.

[3] = tested on: A549 cells; experiment: Soft agar growth assay (Alamar Blue), A549; type: cell-based; conditions: Homo sapiens
Procedure: (§7) Aprepitant (Biorbit) and fosaprepitant (IVEMEND®, MSD) were dissolved at a concentration of 100 mM in 100% DMSO (aprepitant) or in 0.9% NaCl (fosaprepitant). Actinomycin D was used as reference compound.
(§8) Stock solutions were diluted covering the final concentration range between 0 and 200 μM. The appropriate solvent controls were performed in parallel.
(§9) Compounds dissolved in DMSO (aprepitant as well as Actinomycin D) were diluted in 8 semilog steps in DMSO to obtain a dilution series with the 1000 fold final concentration.
(§10) Fosaprepitant was diluted in 8 semilog steps in 0.9% NaCl to obtain a dilution series with the 1000 fold final concentration.
(§11) Cancer cells stemming from established cancer cell lines (A549, HCT116, MDA-MB231) were cultured in DMEM containing 10% FCS and Penicillin/Streptomycin.
(§12) For each cell line 96 well suspension cell culture plates were prepared. 100 μL of the soft agar bottom layer (0.6% final concentration in complete medium) was poured and left to solidify. […]
(§13) Next day, compounds were added into the inner wells of the plate. […] Finally, the assays were developed using Alamar Blue and upon 3-5 h of incubation at 37° C. fluorescence intensity was determined (excitation: 560 nm; emission: 590 nm). […]

[4] = target: NK1 receptors (Homo sapiens, UniProt P25103); conditions: versus other receptors such as serotonin, dopamine, corticosteroid; estimated; cited from earlier work
[5] = tested on: MDA-MB-231 cells (triple negative tumor cells); experiment: Example 5: preventive treatment of xenografted nude mice (FIG. 4); type: in vivo; conditions: MDA-MB-231 xenograft; fosaprepitant i.v. 60 mg/kg/d, aprepitant p.o. 100 mg/kg/d, once daily for 19 days from day -2
Procedure: After an acclimatization period, application of fosaprepitant, aprepitant and vehicle control was started (day −2): Fosaprepitant was administered intravenously (i.v.; 60 mg/kg/d) once daily for 19 days, and aprepitant was administered per oral gavage (p.o.; 100 mg/kg/d) once daily for 19 days. […] The tumor volume was measured and depicted as mm3 at the indicated time points.
FIG. 4: In vivo treatment of xenografted mice with fosaprepitant and aprepitant. After an acclimatization period, application of fosaprepitant, aprepitant and vehicle control was started (day −2): Fosaprepitant was administered intravenously (i.v.; 60 mg/kg/d) once daily for 19 days, and aprepitant was administered per oral gavage (p.o.; 100 mg/kg/d) once daily for 19 days. […] The tumor volume was measured and depicted as mm3 at the indicated time points.

[6] = capsules; cited from earlier work
[7] = tested on: A549 cells; experiment: Xenograft tumor model, preventive application, A549; conditions: aprepitant 100 mg/kg p.o., fosaprepitant 60 mg/kg i.v., 1x daily from day -2
Procedure: as §1, §2, §3, §4, §5, §6

[8] = tested on: HCT116 cells; experiment: Soft agar growth assay (Alamar Blue), HCT116; type: cell-based; conditions: Homo sapiens, HCT-116, 192 h
Procedure: as §7, §8, §9, §10, §11, §12, §13

[9] = tested on: MDA-MB231 cells; experiment: Soft agar growth assay (Alamar Blue), MDA-MB231; type: cell-based; conditions: Homo sapiens, MDA-MB-231, 264 h
Procedure: as §7, §8, §9, §10, §11, §12, §13

[10] = tested on: MDA-MB-231 cells; experiment: Xenograft tumor model, preventive application, MDA-MB-231; conditions: aprepitant 100 mg/kg p.o., fosaprepitant 60 mg/kg i.v., 1x daily from day -2
Procedure: as §1, §2, §3, §4, §5, §6

[11] = cited from earlier work
[12] = HCT116, 10 days after tumor cell inoculation
[13] = HCT116, 20 days after tumor cell inoculation
[14] = HCT116, 30 days after tumor cell inoculation
[15] = A549, 10 days after tumor cell inoculation
[16] = A549, 20 days after tumor cell inoculation
[17] = A549, 30 days after tumor cell inoculation
[18] = MDA-MB-231, 10 days after tumor cell inoculation
[19] = MDA-MB-231, 20 days after tumor cell inoculation
[20] = MDA-MB-231, 30 days after tumor cell inoculation

Chain of NK1 receptors (P25103 whole entry): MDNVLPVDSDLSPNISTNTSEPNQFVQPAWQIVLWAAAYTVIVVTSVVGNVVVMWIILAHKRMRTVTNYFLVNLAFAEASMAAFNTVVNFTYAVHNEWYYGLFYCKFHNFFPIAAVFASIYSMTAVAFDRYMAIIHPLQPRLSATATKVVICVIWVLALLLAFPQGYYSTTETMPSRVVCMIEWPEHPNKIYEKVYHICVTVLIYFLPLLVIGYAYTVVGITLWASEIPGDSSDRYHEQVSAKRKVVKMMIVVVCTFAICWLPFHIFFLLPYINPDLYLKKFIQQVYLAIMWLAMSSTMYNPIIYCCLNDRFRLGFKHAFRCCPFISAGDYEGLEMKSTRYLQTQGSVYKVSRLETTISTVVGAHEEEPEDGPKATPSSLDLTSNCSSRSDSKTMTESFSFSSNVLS

Structure (SMILES) | brain tumor growth [1] | Tumor volume (mean) [2, 12] | Tumor volume (mean) [2, 13] | Tumor volume (mean) [2, 14] | pIC50 ([3]; 192 h, A549 (lung), soft agar growth, incubation time 8 days, read-out: IC50) | selectivity of NK1 receptors compared to other enzyme transporter, ion channels [4] | Tumor growth on preventive application [5] | average oral bioavailability [6] | Tumor volume (mean) [7, 15] | Tumor volume (mean) [7, 16] | Tumor volume (mean) [7, 17] | pIC50 ([8]; HCT116 (colon), soft agar growth, incubation time 8 days, read-out: IC50) | pIC50 ([9]; MDA-MB231 (breast), soft agar growth, incubation time 11 days, read-out: IC50) | Tumor volume (mean) [10, 18] | Tumor volume (mean) [10, 19] | Tumor volume (mean) [10, 20] | water solubility [11] | pIC50 ([3]; A549, 192 h) | pIC50 [8] | pIC50 [9]
C[C@@H](O[C@H]1OCCN(Cc2nc(=O)[nH][nH]2)[C@H]1c1ccc(F)cc1)c1cc(C(F)(F)F)cc(C(F)(F)F)c1 [Aprepitant] | reduce brain tumor growth | <20 mm^3 | <20 mm^3 | <20 mm^3 | 5.44 | at least 3000 times | reduced growth of triple negative tumor cells | 60-65% | <20 mm^3 | <20 mm^3 | <20 mm^3 | 5.47 | 4.77 | <20 mm^3 | <20 mm^3 | <20 mm^3 | virtually water-insoluble |  |  | 
C[C@@H](O[C@H]1OCCN(Cc2nc(O)n(P(=O)(O)O)n2)[C@H]1c1ccc(F)cc1)c1cc(C(F)(F)F)cc(C(F)(F)F)c1 [Fosaprepitant] |  | <20 mm^3 | <20 mm^3 | <20 mm^3 |  |  | reduced growth of triple negative tumor cells |  | <20 mm^3 | <20 mm^3 | <20 mm^3 |  |  | <20 mm^3 | <20 mm^3 | <20 mm^3 | water-soluble | 5.77 | 5.52 | 4.44
